Key:
Format in all cases: in vivo
[1] = tested on: barnyardgrass (Echinochloa crus-galli); assay: Test G Post-Emergence Protocol; details: Echinochloa crus-galli, post-emergence, 312 h
In short: (§1)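 A glasshouse post-emergence test: 8-day-old plants sprayed at 15.625, 62.5 or 250 g/ha, then grown at 24/16 °C day/night with 14 h light and 65% humidity. Damage rated 13 days later, 0–100.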

[2] = tested on: ivy-leaved morning glory (Ipomoea hederacea); assay: Test G Post-Emergence Protocol; details: Ipomoea, post-emergence, 312 h
In short: as §1

[3] = tested on: giant foxtail (Setaria faberi); assay: Test G Post-Emergence Protocol; details: Setaria faberi, post-emergence, 312 h
In short: as §1

corn (Zea mays) [4] = assay: Test G Post-Emergence Protocol; details: Zea mays, post-emergence, 312 h
In short: as §1

[5] = tested on: velvetleaf (Abutilon theophrasti); assay: Test G Post-Emergence Protocol; details: Abutilon theophrasti, post-emergence, 312 h
In short: as §1

[6] = tested on: redroot pigweed (Amaranthus retroflexus); assay: Test G Post-Emergence Protocol; details: Amaranthus retroflexus, post-emergence, 312 h
In short: as §1

[7] = tested on: barnyardgrass (Echinochloa crus-galli); assay: Test G Pre-Emergence Protocol; details: Echinochloa crus-galli, pre-emergence, 312 h, evaluated after 13 days
In short: (§2)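 One day after sowing, pots are treated with a spray of test compound formulated in acetone/water 50:50 plus 0.5% Tween 20, giving 15.625, 62.5 or 250 g/ha. Evaluation on a 0–100 damage scale follows 13 days of glasshouse growth.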

[8] = tested on: ivy-leaved morning glory (Ipomoea hederacea); assay: Test G Pre-Emergence Protocol; details: Ipomoea, pre-emergence, 312 h, evaluated after 13 days
In short: as §2

[9] = tested on: giant foxtail (Setaria faberi); assay: Test G Pre-Emergence Protocol; details: Setaria faberi, pre-emergence, 312 h, evaluated after 13 days
In short: as §2

corn (Zea mays) [10] = assay: Test G Pre-Emergence Protocol; details: Zea mays, pre-emergence, 312 h, evaluated after 13 days
In short: as §2

[11] = tested on: velvetleaf (Abutilon theophrasti); assay: Test G Pre-Emergence Protocol; details: Abutilon theophrasti, pre-emergence, 312 h, evaluated after 13 days
In short: as §2

[12] = tested on: redroot pigweed (Amaranthus retroflexus); assay: Test G Pre-Emergence Protocol; details: Amaranthus retroflexus, pre-emergence, 312 h, evaluated after 13 days
In short: as §2

## Cc1ccc(NC(=O)[C@H]2C(=O)N(C)C[C@@H]2c2ccc(C(F)(F)F)cc2)nc1 (racemic) [Compound 1484]
[1]; 15.625 g ai/ha, evaluated after 13 days (100=total damage to plant; 0=no damage to plant), read-out: Barnyardgrass damage rating
  pest or weed control at 15.625 g/ha: 20%
[1]; 62.5 g ai/ha, evaluated after 13 days, read-out: Barnyardgrass damage rating (100=total damage to plant; 0=no damage to plant)
  pest or weed control at 62.5 g/ha: 20%
[1]; 250 g ai/ha, evaluated after 13 days, read-out: damage to plant, Barnyardgrass (100=total damage to plant; 0=no damage to plant)
  pest or weed control at 250 g/ha: 40%
[2]; 15.625 g ai/ha, evaluated after 13 days (100=total damage to plant; 0=no damage to plant), read-out: Morningglory, Ivy-leaved damage rating
  pest or weed control at 15.625 g/ha: 0%
[2]; 62.5 g ai/ha, evaluated after 13 days, read-out: Morningglory, Ivy-leaved damage rating (100=total damage to plant; 0=no damage to plant)
  pest or weed control at 62.5 g/ha: 0%
[2]; 250 g ai/ha, evaluated after 13 days, read-out: damage to plant, Morningglory, Ivy-leaved (100=total damage to plant; 0=no damage to plant)
  pest or weed control at 250 g/ha: 0%
[3]; 15.625 g ai/ha, evaluated after 13 days (100=total damage to plant; 0=no damage to plant), read-out: Foxtail, Giant damage rating
  pest or weed control at 15.625 g/ha: 10%
[3]; 62.5 g ai/ha, evaluated after 13 days, read-out: Foxtail, Giant damage rating (100=total damage to plant; 0=no damage to plant)
  pest or weed control at 62.5 g/ha: 10%
[3]; 250 g ai/ha, evaluated after 13 days, read-out: damage to plant, Foxtail, Giant (100=total damage to plant; 0=no damage to plant)
  pest or weed control at 250 g/ha: 30%
Corn (Zea mays) [4]; 15.625 g ai/ha, evaluated after 13 days (100=total damage to plant; 0=no damage to plant), read-out: Corn damage rating
  plant injury at 15.625 g/ha: 20%
Corn (Zea mays) [4]; 62.5 g ai/ha, evaluated after 13 days, read-out: Corn damage rating (100=total damage to plant; 0=no damage to plant)
  plant injury at 62.5 g/ha: 0%
Corn (Zea mays) [4]; 250 g ai/ha, evaluated after 13 days, read-out: damage to plant, Corn (100=total damage to plant; 0=no damage to plant)
  plant injury at 250 g/ha: 30%
[5]; 15.625 g ai/ha, evaluated after 13 days (100=total damage to plant; 0=no damage to plant), read-out: Velvetleaf damage rating
  pest or weed control at 15.625 g/ha: 0%
[5]; 62.5 g ai/ha, evaluated after 13 days, read-out: Velvetleaf damage rating (100=total damage to plant; 0=no damage to plant)
  pest or weed control at 62.5 g/ha: 0%
[5]; 250 g ai/ha, evaluated after 13 days, read-out: damage to plant, Velvetleaf (100=total damage to plant; 0=no damage to plant)
  pest or weed control at 250 g/ha: 10%
[6]; 15.625 g ai/ha, evaluated after 13 days (100=total damage to plant; 0=no damage to plant), read-out: Pigweed, Redroot damage rating
  pest or weed control at 15.625 g/ha: 10%
[6]; 62.5 g ai/ha, evaluated after 13 days, read-out: Pigweed, Redroot damage rating (100=total damage to plant; 0=no damage to plant)
  pest or weed control at 62.5 g/ha: 0%
[6]; 250 g ai/ha, evaluated after 13 days, read-out: damage to plant, Pigweed, Redroot (100=total damage to plant; 0=no damage to plant)
  pest or weed control at 250 g/ha: 20%
[7]; 15.625 g ai/ha, read-out: Barnyard grass damage rating (100=total damage to plant; 0=no damage to plant)
  pest or weed control at 15.625 g/ha: 0%
[7]; 62.5 g ai/ha, 100=total damage to plant, 0=no damage to plant, read-out: plant damage rating, Barnyardgrass
  pest or weed control at 62.5 g/ha: 10%
[7]; 250 g ai/ha, read-out: Barnyardgrass damage rating (100=total damage to plant; 0=no damage to plant)
  pest or weed control at 250 g/ha: 30%
[8]; 15.625 g ai/ha, read-out: Morning-glory, Ivy-leaved damage rating (100=total damage to plant; 0=no damage to plant)
  pest or weed control at 15.625 g/ha: 0%
[8]; 62.5 g ai/ha, 100=total damage to plant, 0=no damage to plant, read-out: plant damage rating, Morningglory, Ivy-leaved
  pest or weed control at 62.5 g/ha: 0%
[8]; 250 g ai/ha, read-out: Morningglory, Ivy-leaved damage rating (100=total damage to plant; 0=no damage to plant)
  pest or weed control at 250 g/ha: 0%
[9]; 15.625 g ai/ha, read-out: Foxtail, Giant damage rating (100=total damage to plant; 0=no damage to plant)
  pest or weed control at 15.625 g/ha: 10%
[9]; 62.5 g ai/ha, 100=total damage to plant, 0=no damage to plant, read-out: plant damage rating, Foxtail, Giant
  pest or weed control at 62.5 g/ha: 10%
[9]; 250 g ai/ha, read-out: Foxtail, Giant damage rating (100=total damage to plant; 0=no damage to plant)
  pest or weed control at 250 g/ha: 30%
Corn (Zea mays) [10]; 15.625 g ai/ha, read-out: Corn damage rating (100=total damage to plant; 0=no damage to plant)
  plant injury at 15.625 g/ha: 20%
Corn (Zea mays) [10]; 62.5 g ai/ha, 100=total damage to plant, 0=no damage to plant, read-out: plant damage rating, Corn
  plant injury at 62.5 g/ha: 10%
Corn (Zea mays) [10]; 250 g ai/ha, read-out: Corn damage rating (100=total damage to plant; 0=no damage to plant)
  plant injury at 250 g/ha: 30%
[11]; 15.625 g ai/ha, read-out: Velvetleaf damage rating (100=total damage to plant; 0=no damage to plant)
  pest or weed control at 15.625 g/ha: 0%
[11]; 62.5 g ai/ha, 100=total damage to plant, 0=no damage to plant, read-out: plant damage rating, Velvetleaf
  pest or weed control at 62.5 g/ha: 0%
[11]; 250 g ai/ha, read-out: Velvetleaf damage rating (100=total damage to plant; 0=no damage to plant)
  pest or weed control at 250 g/ha: 0%
[12]; 15.625 g ai/ha, read-out: Pigweed, Redroot damage rating (100=total damage to plant; 0=no damage to plant)
  pest or weed control at 15.625 g/ha: 0%
[12]; 62.5 g ai/ha, 100=total damage to plant, 0=no damage to plant, read-out: plant damage rating, Pigweed, Redroot
  pest or weed control at 62.5 g/ha: 0%
[12]; 250 g ai/ha, read-out: Pigweed, Redroot damage rating (100=total damage to plant; 0=no damage to plant)
  pest or weed control at 250 g/ha: 20%
